Common to all, as to test: RAR-P-GR holoreceptor transactivation assay (PGR assay)
Common to all, as to assay type: cell-based

Test [1] deals with T1, RARβ (Homo sapiens, UniProt P10826, E106G/G107S/G110V).
T1 construct: expressed in transfected cells; host or cells: CV-1
T1 sequence (P10826 1-448 isoform P10826-2 E99G/G100S/G103V): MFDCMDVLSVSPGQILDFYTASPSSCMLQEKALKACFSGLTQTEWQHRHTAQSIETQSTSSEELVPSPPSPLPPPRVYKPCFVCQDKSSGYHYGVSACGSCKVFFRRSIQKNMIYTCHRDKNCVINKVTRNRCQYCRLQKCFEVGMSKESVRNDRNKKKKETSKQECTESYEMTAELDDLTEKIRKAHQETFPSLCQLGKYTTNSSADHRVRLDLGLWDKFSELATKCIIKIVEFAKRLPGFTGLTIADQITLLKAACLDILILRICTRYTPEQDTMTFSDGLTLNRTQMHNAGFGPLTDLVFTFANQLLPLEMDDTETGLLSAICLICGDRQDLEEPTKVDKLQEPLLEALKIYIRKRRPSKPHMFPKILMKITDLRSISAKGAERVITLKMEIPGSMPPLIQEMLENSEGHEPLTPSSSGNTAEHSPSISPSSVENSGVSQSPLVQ
T1 sequence (P19793 1-462 partner): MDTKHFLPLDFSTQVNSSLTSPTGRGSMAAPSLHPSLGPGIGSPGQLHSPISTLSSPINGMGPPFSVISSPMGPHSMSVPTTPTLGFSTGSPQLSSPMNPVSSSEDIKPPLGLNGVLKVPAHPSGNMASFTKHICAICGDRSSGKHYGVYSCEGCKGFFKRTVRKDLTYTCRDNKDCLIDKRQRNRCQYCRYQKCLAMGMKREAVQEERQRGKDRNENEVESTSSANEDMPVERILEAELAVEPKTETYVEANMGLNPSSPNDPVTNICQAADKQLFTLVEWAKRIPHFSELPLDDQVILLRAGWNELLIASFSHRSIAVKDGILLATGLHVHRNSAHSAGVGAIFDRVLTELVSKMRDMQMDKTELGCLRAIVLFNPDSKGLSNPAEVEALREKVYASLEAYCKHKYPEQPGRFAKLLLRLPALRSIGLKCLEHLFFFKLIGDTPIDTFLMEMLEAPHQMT
The conditions noted are these: for EC50: CV-1 cells, luciferase reporter, 18 hours; for Emax: relative to all-trans-retinoic acid, read-out: % Efficiency RARβ. The procedure:
(§1) Still another transactivation assay, the "PGR assay" is described in the publication KIein et al. J. Biol. Chem. 271, 22692-22696 (1996) which is expressly incorporated herein by reference, and a detailed description is also provided below. The results of the PGR assay are also expressed in EC50 numbers (nanomolar concentration).
(§2) RAR-P-GR Holoreceptor Transactivation Assay
(§3) CV-1 cells (4×10^5 cells/well) were transiently transfected with the luciferase reporter plasmid MTV-4(R5G)-Luc (0.7 μg/well) containing four copies of the R5G retinoid DNA response element along with the RXRα expression plasmid pRS-hRXRα (0.1 μg/well) and one of the RAR-P-GR expression plasmids (0.05 μg/well) in 12 well plates via calcium phosphate precipitation Chen et al. (1987) Mol. Cell. Biol. 7, 2745-2752, as described by Vein et al. in J. Biol. Chem. 271, 22692, referenced above. The three different RAR-P-GR expression plasmids, pRS-RARα-P-GR, pcDNA3-RARβ-P-GR and pcDNA3-RARγ-P-GR, express RARα, RARβ and RARγ receptors, respectively, which contain modified DNA binding domains such that their "P-boxes" have been altered to that of the glucocorticoid receptor. These RAR-P-GR receptors bind to DNA as heterodimeric complexes with RXR. Specifically, the RAR-P-GR receptors bind retinoic acid response elements designated R5G, comprised of two RAR half sites (nucleotide sequence 5'-GGTTCA-3') separated by 5 base pairs in which the 3'-half site has been modified to that of a glucocorticoid receptor half site, 5'-AGAACA-3'. To allow for various in transfection efficiency a β-galactosidase expression plasmid (0.01 ug/well) was used as an internal control. Alternatively, the assay was performed in a 96-well microtiter plate format (5000 cells/well) in a manner which was identical to that described above except 1/5 of the amount of the DNA-calcium phosphate precipitant (20 μl instead of 100 μl) was applied to each well. Eighteen hours after introduction of the DNA precipitants, cells were rinsed with phosphate buffered saline (PBS) and fed with D-MEM (Gibco-BRL) containing 10% activated charcoal extracted fetal bovine serum (Gemini Bio-Products). After rinsing with PBS, cells were lysed and luciferase activity was measured as previously described in de Wet et al. (1987) Mol. Cell. Biol. 7, 725-737. Luciferase values represent the mean±SEM of triplicate determinations normalized to β-galactosidase activity.
On the technique in general: In a reporter assay the amount or activity of a reporter protein is the signal.

In test [2] the target is T2, RARγ (Homo sapiens, UniProt P13631, E108G/G109S/G112V).
T2 construct: expressed in transfected cells; host or cells: CV-1
T2 sequence (P13631 1-454 E108G/G109S/G112V): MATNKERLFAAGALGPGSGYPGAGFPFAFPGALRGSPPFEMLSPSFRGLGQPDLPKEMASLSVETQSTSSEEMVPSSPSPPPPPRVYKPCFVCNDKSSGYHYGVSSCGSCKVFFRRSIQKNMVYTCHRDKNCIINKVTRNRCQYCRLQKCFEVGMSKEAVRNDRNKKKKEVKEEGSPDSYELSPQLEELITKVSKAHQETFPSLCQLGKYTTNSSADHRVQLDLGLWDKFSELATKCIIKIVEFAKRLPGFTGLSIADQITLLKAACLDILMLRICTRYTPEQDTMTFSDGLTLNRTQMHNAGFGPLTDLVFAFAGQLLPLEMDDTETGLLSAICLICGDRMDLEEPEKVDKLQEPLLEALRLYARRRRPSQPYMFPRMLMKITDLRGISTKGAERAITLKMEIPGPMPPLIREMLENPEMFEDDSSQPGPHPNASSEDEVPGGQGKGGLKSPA
T2 sequence (P19793 1-462 partner): T1 sequence (P19793 1-462 partner)
The conditions noted are these: for EC50: CV-1 cells, luciferase reporter, 18 hours; for Emax: relative to all-trans-retinoic acid, read-out: % Efficiency RARγ. The procedure:
as §1, §2, §3

The target in test [3] is T3, RARα (Homo sapiens, UniProt P10276, E106G/G107S/G110V).
T3 construct: expressed in transfected cells; host or cells: CV-1
T3 sequence (P10276 1-462 E106G/G107S/G110V): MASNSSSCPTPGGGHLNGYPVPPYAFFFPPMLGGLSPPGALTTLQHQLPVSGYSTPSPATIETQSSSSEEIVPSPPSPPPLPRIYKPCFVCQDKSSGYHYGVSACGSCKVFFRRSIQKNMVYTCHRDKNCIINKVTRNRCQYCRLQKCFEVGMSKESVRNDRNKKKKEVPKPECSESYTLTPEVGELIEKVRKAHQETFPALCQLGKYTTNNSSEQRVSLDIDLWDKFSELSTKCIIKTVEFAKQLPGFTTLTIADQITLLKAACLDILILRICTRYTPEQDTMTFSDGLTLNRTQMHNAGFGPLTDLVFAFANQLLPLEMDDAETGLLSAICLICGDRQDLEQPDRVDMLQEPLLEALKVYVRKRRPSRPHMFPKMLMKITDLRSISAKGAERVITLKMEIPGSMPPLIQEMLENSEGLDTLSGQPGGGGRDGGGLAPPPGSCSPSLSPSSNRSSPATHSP
T3 sequence (P19793 1-462 partner): T1 sequence (P19793 1-462 partner)
The settings on record: for EC50: CV-1 cells, luciferase reporter, 18 hours; for Emax: relative to all-trans-retinoic acid, read-out: % Efficiency RARα. As for the experimental part:
as §1, §2, §3

Usually EC50 stands for the concentration at which the effect is half-maximal. `Cc1ccc(C(=O)c2cc(C#Cc3ccc(C(=O)O)cc3)ccc2O)cc1` [Compound 5, 4-[[4'-hydroxy-3'-(4"-methyl)benzoyl]phenylethynyl]benzoic acid]: the EC50 in test [1], in test [2] and in test [3] was > 10 µM in each case. The Emax in test [1] was found to be 3%; in test [2], 1%; in test [3] it was 1%.
For `C=C(c1ccc(C)cc1)c1cc(C#Cc2ccc(C(=O)O)cc2)ccc1O` [Compound 8, 4-[[4'-Hydroxy-3'-(1-p-tolyl)vinyl]phenylethynyl]benzoic acid], the EC50 in test [1], in test [2] and in test [3] was > 10 µM throughout. Also, the Emax came to 3% in test [1], 3% in test [2] and 1% in test [3].
Consider `C=C(c1ccc(C)cc1)c1cc(C#Cc2ccc(C(=O)O)cc2)ccc1OCOC` [Compound 9, 4-[[4'-methoxymethoxy-3'-(1-p-tolyl)vinyl]phenylethynyl]benzoic acid], for which the concentration giving a half-maximal response (EC50) in test [1], in test [2] and in test [3] was > 10 µM each time. The results for the Emax in test [1], in test [2] and in test [3] were 3%, 5% and 1%, respectively.
Consider `C=C(c1ccc(C)cc1)c1cc(C#Cc2ccc(C(=O)O)cc2)ccc1OC` [Compound 12, 4-[[4'-Methoxy-3'-(1-p-tolyl)vinyl]phenylethynyl]benzoic acid], for which the EC50 in test [1], in test [2] and in test [3] was > 10 µM in each case. Also, the Emax in test [1] is 1%; in test [2] it was 5%; in test [3] it was 0%.
Take `COCOc1ccc(C#Cc2ccc(C(=O)O)cc2)cc1C(=O)c1ccc(C)cc1` [Compound 13]: the EC50 in test [1], in test [2] and in test [3] was > 10 µM each time. In addition, the Emax in test [1], in test [2] and in test [3] was 0% each time.
`C=C(c1ccc(C)cc1)c1cccc(C#Cc2ccc(C(=O)O)cc2)c1` [Compound 20, 4-[[3'-(1-p-Tolyl)vinyl]phenylethynyl]benzoic acid]: the EC50 in test [1], in test [2] and in test [3] was > 10 µM in each case. Further, the Emax in test [1] was 5%; in test [2] it was 1%; in test [3], 9%.
Regarding `COc1ccc(C#Cc2ccc(C(=O)O)cc2)cc1C(=O)c1ccc(C)cc1` [Compound 22, 4-[[4'-methoxy-3'-(4"-methyl)benzoyl]phenylethynyl]benzoic acid], the EC50 in test [1], in test [2] and in test [3] was > 10 µM in each case. Besides, the Emax in test [1], in test [2] and in test [3] was 0% throughout.
For the compound `Cc1ccc(C(=O)c2cc(C#Cc3ccc(C(=O)O)c(F)c3)c(C)cc2O)cc1` [Compound 25, 4-[[4'-Hydroxy-2'-methyl-5'-(4"-methyl)benzoyl]phenylethynyl]-2-fluoro-benzoic acid], the 50% effective concentration (EC50) in test [1], in test [2] and in test [3] was > 10 µM in each case. Besides, the Emax in test [1] was 2%; in test [2] it was 0%; in test [3], 0%.
For the compound `C=C(c1ccc(C)cc1)c1cc(C#Cc2ccc(C(=O)O)cc2)ccc1OC(C)C` [Compound 28, 4-[[4'-Isopropoxy-3'-(1-p-tolyl)vinyl]phenylethynyl]benzoic acid], the concentration for a half-maximal effect (EC50) in test [1], in test [2] and in test [3] was > 10 µM throughout. The figures for the Emax in test [1], in test [2] and in test [3] were 0%, 1% and 0%, respectively.
Regarding `C=C(c1ccc(C)cc1)c1cc(C#Cc2ccc(C(=O)O)c(F)c2)ccc1OC(C)C` [Compound 29, 4-[[4'-Isopropoxy-3'-(1-p-tolyl)vinyl]phenylethynyl]-2-fluoro-benzoic acid], the EC50 in test [1], in test [2] and in test [3] was > 10 µM each time. For the same compound, the values for the Emax in test [1], in test [2] and in test [3] were 0%, 1% and 0%, respectively.
For the compound `C=C(c1cccc(C)c1)c1cc(C#Cc2ccc(C(=O)O)cc2)ccc1OC(C)C` [Compound 31, 4-[[4'-Isopropoxy-3'-(1-m-tolyl)vinyl]phenylethynyl]benzoic acid], the EC50 in test [1], in test [2] and in test [3] was > 10 µM each time. Further, the Emax in test [1] worked out at 4%; in test [2] it was 2%; in test [3], 0%.

(Values after US6225494A, “Trisubstituted phenyl derivatives having retinoid agonist or inverse agonist type biological activity” (Allergan Sales, Inc., priority 1999, dated 2001).)
